Data from article PMC7806726, “Activated neutrophil fluorescent imaging technique for human lungs” (Scientific Reports, 2021).
Numbered stars: 1 amine (or outer) side, 2 acyl side, 3 side chain; on linkers, the order of the positions; unused ones are H or OH. Bridge positions count the residues as written; N and C are the ends. Square brackets hold non-standard residues; d marks the D form. Peptide text beside a SMILES is read from it. I, II: the chains in the order shown. * marks the point of attachment. 5FAM = O=C1OC2(c3ccc(O)cc3Oc3cc(O)ccc32)c2ccc(C(=O)*)cc21; X1 = NC(=O)NC(COCCCN[*:1])(COCCCN[*:2])COCCCN[*:3]; Nle = CCCC[C@H](N)C(=O)O; AEEA = NCCOCCOCC(=O)O

Tests used:
[1] = tested on: freshly isolated neutrophils; assay: Flow cytometry of intracellular NAP fluorescence in isolated neutrophils; format: cell-based, human; conditions: A23187 10 µM activated neutrophils, NAP 5 µM; Dynasore Hydrate 30 µM, DPI 10 µM, Sivelestat 100 µM; 30 min 37 °C
Method: Neutrophils were suspended in PBS with divalent cations at a concentration of 10 × 10^6/mL. […] Incubation took place at 37 °C for 30 min and samples were shaken at 500 rpm using an orbital plate shaker (Thermomixer comfort, Eppendorf, Hamburg, Germany). Suspensions were then incubated with anti-human CD11b-APC (1:100 dilution, Clone ICRF44, Biolegend, CA, USA) at 22 °C for 30 min at 500 rpm before the application of NAP to a final concentration of 5 µM for 15 min at 22 °C and 500 rpm. Cells were washed in PBS without divalent cations at 350 g for 5 min at room temperature using a microtube centrifuge (Biofuge fresco, Heraeus, Hanau, Germany) and reconstituted in 175 µL PBS without divalent cations. Samples were loaded onto a 96 round-bottomed well plate (Corning).
Flow cytometry was performed using an Accuri C6 flow cytometer and BD CSampler software (both Becton–Dickinson, NJ, USA). Compensation beads and single stain controls were used where appropriate. […] The cytometer was thresholded on forward scatter to eliminate debris. The cytometer was aligned monthly using Calibrite 3, APC and 8 peak beads (Becton–Dickinson) to calibrate scatter and fluorescence parameters.
Data analyses were performed using Flowjo v10.0.8r1 (Treestar, Ashland, OR, USA). Samples were repeated in duplicate for each individual donor and pooled to yield a point estimate for each condition and each donor. The point estimates from different donors were pooled to yield an overall mean point estimate for each condition ± SE.

[2] = Change in fluorescence with pH (plate reader); format: physicochemical; conditions: carboxyfluorescein 15 µM, freshly made pH buffer; n = 1, in triplicate
rats = assay: GLP toxicology study, delivery via the trachea; format: in vivo, rat
Method: NAP was delivered via the trachea to rats in a Contract Research Organization Good Laboratory Practice (GLP) toxicology study at approximately 700 times the human dose. NAP (100 µg) was instilled and rats underwent necroscopy at 3 and 15 days after delivery. […] The release specifications for NAP drug substance and drug product are shown in Supplementary tables S3 and S4.
All experiments using human volunteers were performed following approval from the appropriate regional ethics committee (REC) and informed consent was obtained from each participant or their personal legal representative for adults with incapacity (in accordance with the Adults with Incapacity (Scotland) Act 2000). BALF for alveolar macrophages: (East of Scotland Research Ethics Committee 1 no: 07/S1102/20), blood for assessment of leucocyte populations (Lothian Research Ethics Committee no: 08/S1103/38), and first-in-human assessment of probe performance and safety (Scotland A Research Ethics Committee no: 12/SS/0004, EudraCT 2011-006169-17, NCT01532024). All methods were performed in accordance with the relevant guidelines and regulations. Animal toxicology was conducted in compliance with UK Good Laboratory Practice Regulations by a third party contract research organization (Covance Laboratories Ltd, Harrogate, UK) under Covance UK Home Office License for toxicology. […]

erythrocytes = assay: Erythrocyte haemolysis (membrane toxicity); format: cell-based, human; conditions: NAP 5 µM or working concentration × 2, 1 h 37 °C, absorbance 350 nm, vs Triton X-100 0.4%
Method: (§1) Membrane toxicity of NAP was assessed using erythrocyte haemolysis. Isolated erythrocytes remaining after leukocyte separation were diluted 1:5 with PBS without cations and 50 µL of this red cell suspension was added to wells of a 96-well plate. Working concentration of NAP (5 µM), or working concentration × 2, was added to the relevant well. Positive control wells contained Triton X-100 (0.4%, Sigma-Aldrich) and negative control wells contained PBS w/o only. The 96-well plate was incubated for one hour at 37 °C in a humidified environment. Following incubation, 180 µL of PBS without cations was added to each well and the plate was centrifuged at 2500 rpm for 10 min. 100 µL of supernatant from each well was removed and aliquoted into clean wells. Absorbance at 350 nm was recorded using a plate reader. Triplicate repeats were pooled to yield an overall mean point estimate ± SEM of haemolysis that was expressed as a percentage of the positive control. For neutrophil toxicity freshly isolated human peripheral neutrophils were resuspended at 10 × 10^6 cells/mL in IMDM with 10% autologous serum and cultured for 18hrs ± 5 µM NAP at 37 degrees in a 5% CO2 incubator. […] Duplicate repeats were pooled to yield an overall mean point estimate ± SEM of apoptosis and necrosis that was expressed as a percentage of total cells.

[3] = GLP AMES mutagenicity test, microsuspension-modified method
[4] = biological target: T1, human neutrophil elastase (HNE) (Homo sapiens, UniProt P08246); assay: Plate reader assessment of probe de-quenching with purified HNE; format: biochemical
T1 construct: purchased Elastin Products Company, MO, USA
T1 sequence (P08246 30-267): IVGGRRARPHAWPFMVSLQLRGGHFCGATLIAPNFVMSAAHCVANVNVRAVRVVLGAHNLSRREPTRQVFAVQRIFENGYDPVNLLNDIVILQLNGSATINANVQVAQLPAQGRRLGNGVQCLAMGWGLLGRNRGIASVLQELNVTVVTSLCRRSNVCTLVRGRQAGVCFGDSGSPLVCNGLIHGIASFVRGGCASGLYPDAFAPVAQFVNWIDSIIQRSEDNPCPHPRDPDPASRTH
Method: To generate an emission spectrum, NAP was excited at 430 nm to ensure the spectrum could be visualized to the x-axis. Excitation/absorbance spectra were obtained with NAP diluted to 5 µM in PBS or freshly prepared pH buffer. Purified HNE (Elastin Products Company, MO, USA) and purified proteinase 3 (Sigma-Aldrich, Poole, UK) were made up according to the manufacturer’s instructions to yield appropriate stock concentrations. Stock preparations of purified enzyme were prepared according to manufacturers’ instructions and subsequently diluted appropriately with Phosphate Buffered Saline (PBS, Thermoscientific, MA, USA) and NAP to achieve a final volume of 200 µL per condition and a final NAP concentration of 5 µM. Solutions were prepared directly into 96 well plates (Corning, NY, USA) on ice, with or without the human neutrophil elastase inhibitor Sivelestat (ONO-5046, 100 µM, Tocris, Bristol, UK). Plates were subsequently incubated at 37 °C with fluorescent parameters recorded every minute for 1 h (Fig. 1C, excitation 488 nm, emission 525 nm). All fluorescence parameters were recorded using a microplate reader (Synergy H1 hybrid reader, BioTek, Potton, UK,).

[5] = tested on: freshly isolated human peripheral neutrophils; assay: Neutrophil toxicity (Annexin V / propidium iodide flow cytometry); format: cell-based; conditions: 5 µM NAP, 18 h, 37 °C, IMDM with 10% autologous serum, Annexin V/PI
Method: as §1

[6] = tested on: isolated healthy human neutrophils; assay: Confocal time course of primed neutrophils activated with fMLF; format: cell-based; conditions: co-incubation with Sivelestat 100 µM; Cytochalasin B primed, fMLF 500 nM, NAP 5 µM
Method: Where stated commercial stains were used in accordance with the manufacturer’s instructions or applied to a suspension of the relevant cells in eppendorfs at a concentration of 1:1000 from delivered stock for 10 min at 37 °C and 500 rpm using an orbital plate shaker before undergoing one wash in PBS without divalent cations as described above. 8 well Lab-Tek II confocal chambers (VWR, PA, USA) were coated in fibronectin (1 µg/ml, Sigma-Aldrich) for 10 min at 37 °C. Wells were then washed twice before the addition of the appropriate cell suspension. Cells were typically seeded at a concentration of 0.5—1 × 10^6/mL. […]
A laser scanning confocal imaging system (LSM510; Carl Zeiss, Jena, Germany), incorporating an upright Axioskop FS2 microscope (× 63 objective) was used for image acquisition. […] Fluorescein based dyes were excited with a dedicated 488 nm laser line, with emitted light detected at 500–530 nm. Syto 82 nuclear, calcein cytoplasmic dyes and CellMask Orange plasma membrane stain (all Invitrogen, Thermoscientific) were excited with a dedicated 543 nm line, with emitted light detected at 560–600 nm. Syto 60 (Invitrogen, Thermoscientific) stain was excited with a dedicated 633 nm line, with emitted light detected at 650–680 nm. PKH labelled bacteria were excited with a dedicated 633 nm line with emitted light detected at 650–705 nm. […]

## c1ccc2c(c1)[I+]c1ccccc1-2 [DPI, Diphenyleneiodonium]
[1]
  effect of inhibitor on intracellular NAP fluorescent signal (flow cytometry): reduced the overall mean fluorescent intensity

## carboxyfluorescein
[2]
  change in fluorescence with pH: expected increase in fluorescence as H^+ concentration falls

## CCCC[C@H](NC(=O)[C@@H](NC(=O)[C@H](CCC(=O)O)NC(=O)[C@H](CCC(=O)O)NC(=O)COCCOCCNC(=O)c1ccc2c(c1)C(=O)OC21c2ccc(O)cc2Oc2cc(O)ccc21)[C@@H](C)CC)C(=O)N[C@@H](CCCNC(=N)N)C(=O)N[C@@H](CCCNC(=N)N)C(=O)NCCCOCC(COCCCNC(=O)[C@H](CCCNC(=N)N)NC(=O)[C@H](CCCNC(=N)N)NC(=O)[C@H](CCCC)NC(=O)[C@@H](NC(=O)[C@H](CCC(=O)O)NC(=O)[C@H](CCC(=O)O)NC(=O)COCCOCCNC(=O)c1ccc2c(c1)C(=O)OC21c2ccc(O)cc2Oc2cc(O)ccc21)[C@@H](C)CC)(COCCCNC(=O)[C@H](CCCNC(=N)N)NC(=O)[C@H](CCCNC(=N)N)NC(=O)[C@H](CCCC)NC(=O)[C@@H](NC(=O)[C@H](CCC(=O)O)NC(=O)[C@H](CCC(=O)O)NC(=O)COCCOCCNC(=O)c1ccc2c(c1)C(=O)OC21c2ccc(O)cc2Oc2cc(O)ccc21)[C@@H](C)CC)NC(N)=O (stereo partly drawn) [NAP] (I: {5FAM-AEEA}-EEI[Nle]RR / II: {5FAM-AEEA}-EEI[Nle]RR / III: {5FAM-AEEA}-EEI[Nle]RR; linker I:C-II:C-III:C via X1)
rats; NAP 100 µg instilled via the trachea (approximately 700 times the human dose), necroscopy at 3 and 15 days
  local or distant organ toxicity: No local or distant organ toxicity was observed
rats; NAP 100 µg instilled via the trachea, 3 and 15 days
  haematological or other metabolic consequences: no haematological or other metabolic consequences
erythrocytes
  red cell haemolysis: did not cause
[3]
  mutagenicity: no mutagenicity
[4]; NAP 5 µM in PBS with purified HNE, 37 °C, read every minute for 1 h, ex 488 nm / em 525 nm, three independent experiments
  increase in fluorescence compared to the resting state: ~350%
[5]
  neutrophil necrosis: did not cause

## CC(C)(C)C(=O)Oc1ccc(S(=O)(=O)Nc2ccccc2C(=O)NCC(=O)O)cc1 [Sivelestat]
[1]
  effect of inhibitor on intracellular NAP fluorescent signal (flow cytometry): abrogated
[4]; Sivelestat 100 µM, NAP 5 µM, 100 nM HNE
  effect of inhibitor on cleavage of NAP by HNE: completely abrogated
[6]
  effect of inhibitor on intracellular NAP fluorescent signal (confocal): abrogated

## O.O=C(N/N=C/c1ccc(O)c(O)c1)c1cc2ccccc2cc1O [Dynasore Hydate, Dynasore Hydrate]
[1]
  effect of inhibitor on intracellular NAP fluorescent signal (flow cytometry): abrogated
